Laboratory results from US9732119B2, “Immunomodulators” (BRISTOL-MYERS SQUIBB COMPANY, priority 2014, dated 2017).
Positions of bridges follow the written chain, without caps; N, C: chain ends. Non-standard residues stand in square brackets, D forms with d. Residues, ends and D or L forms follow the SMILES beside them. Trp(1-CH2COOH) = N[C@@H](Cc1cn(CC(=O)O)c2ccccc12)C(=O)O; Phe(4-Cl) = N[C@@H](Cc1ccc(Cl)cc1)C(=O)O; Phe(4-F) = N[C@@H](Cc1ccc(F)cc1)C(=O)O; Phe(4-Me) = Cc1ccc(C[C@H](N)C(=O)O)cc1; Hyp = O=C(O)[C@@H]1C[C@@H](O)CN1; Aad = N[C@@H](CCCC(=O)O)C(=O)O; NMeNle = CCCC[C@H](NC)C(=O)O; Pip = O=C(O)[C@@H]1CCCCN1; Orn = NCCC[C@H](N)C(=O)O; Dab = NCC[C@H](N)C(=O)O; Dap = NC[C@H](N)C(=O)O; Ava = NCCCCC(=O)O

The compounds below were run against T1, PD-1-Ig binding to PD-L1-TVMV-His (PD-L1-His) (Homo sapiens, UniProt Q9NZQ7) (assay: PD-1/PD-L1 Homogenous Time-Resolved Fluorescence (HTRF) binding assay). Conditions: PD-1-Ig (20 nM) / PD-L1-His (10 nM); numeric values.
T1 construct: hPDL1(19-239)-TVMV-His; made in house; host or cells: HEK293T cells
T1 sequence (Q9NZQ7 with tags, fused parts or gaps): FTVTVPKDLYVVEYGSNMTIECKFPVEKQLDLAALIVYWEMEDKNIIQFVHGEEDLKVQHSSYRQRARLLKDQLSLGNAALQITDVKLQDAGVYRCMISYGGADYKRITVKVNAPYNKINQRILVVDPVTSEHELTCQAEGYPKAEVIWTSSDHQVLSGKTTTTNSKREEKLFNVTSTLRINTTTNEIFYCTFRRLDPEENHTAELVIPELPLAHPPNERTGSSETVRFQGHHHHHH
Outline: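 In dPBS with 0.1% BSA and 0.05% Tween-20, inhibitors were preincubated 15 min with 10 nM PD-L1-His before 20 nM PD-1-Ig was added for another 15 min. Binding read by time-resolved FRET between Eu-cryptate anti-Ig (1 nM) and APC anti-His (20 nM).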

IC50 | SMILES
16 nM | CCCC[C@H]1C(=O)N(C)[C@@H](CCCC)C(=O)N[C@@H](CCC(=O)O)C(=O)N[C@H](C(=O)NCC(N)=O)CNCC(=O)N[C@@H](Cc2ccc(F)cc2)C(=O)N(C)[C@@H](C)C(=O)N[C@@H](CC(N)=O)C(=O)N2CCC[C@H]2C(=O)N[C@@H](CCC(N)=O)C(=O)N[C@@H](CCC(N)=O)C(=O)N2C[C@H](O)C[C@H]2C(=O)N[C@@H](Cc2c[nH]c3ccccc23)C(=O)N[C@@H](CC(N)=O)C(=O)N[C@@H](Cc2cn(CC(=O)O)c3ccccc23)C(=O)N1C [Example 9025]

Same assay, conditions: PD-1-Ig (20 nM) / PD-L1-His (10 nM); range classes

SMILES | IC50
CCCC[C@H]1C(=O)N(C)[C@@H](CCCC)C(=O)N[C@@H](CC(C)C)C(=O)N[C@H](C(=O)NCC(N)=O)CCNCC(=O)N[C@@H](Cc2ccc(O)cc2)C(=O)N(C)[C@@H](C)C(=O)N[C@@H](CC(N)=O)C(=O)N2CCC[C@H]2C(=O)N[C@@H](Cc2cnc[nH]2)C(=O)N[C@@H](CCC(N)=O)C(=O)N2C[C@H](O)C[C@H]2C(=O)N[C@@H](Cc2c[nH]c3ccccc23)C(=O)NCC(=O)N[C@@H](Cc2cn(CC(=O)O)c3ccccc23)C(=O)N1C [Example 10021] | 10 to 99 nM
CCCC[C@H]1C(=O)N(C)[C@@H](CCCC)C(=O)N[C@@H](CC(C)C)C(=O)N[C@H](C(=O)NCC(N)=O)CNCC(=O)N[C@@H](Cc2ccc(O)cc2)C(=O)N(C)[C@@H](C)C(=O)N[C@@H](CC(=O)O)C(=O)N2CCC[C@H]2C(=O)N[C@@H](CCC(N)=O)C(=O)N[C@@H](CC(C)C)C(=O)N2C[C@H](O)C[C@H]2C(=O)N[C@@H](Cc2c[nH]c3ccccc23)C(=O)N[C@@H](CC(N)=O)C(=O)N[C@@H](Cc2cn(CC(=O)O)c3ccccc23)C(=O)N1C [Example 9012] | 10 to 99 nM
CCCC[C@H]1C(=O)N(C)[C@@H](CCCC)C(=O)N[C@@H](CC(C)C)C(=O)NCCC[C@H](N)C(=O)N[C@@H](Cc2ccc(F)cc2)C(=O)N2CCCC[C@H]2C(=O)N[C@@H](CC(N)=O)C(=O)N2CCC[C@H]2C(=O)N[C@@H](CN)C(=O)N[C@@H](CC(C)C)C(=O)N2C[C@H](O)C[C@H]2C(=O)N[C@@H](Cc2c[nH]c3ccccc23)C(=O)N[C@@H](CCN)C(=O)N[C@@H](Cc2cn(CC(=O)O)c3ccccc23)C(=O)N1C [Example 10550] (H-[Orn][Phe(4-F)][Pip]NP[Dap]L[Hyp]W[Dab][Trp(1-CH2COOH)][NMeNle][NMeNle]L; lactam 1-C) | 10 to 99 nM
CCCC[C@H]1C(=O)N(C)[C@@H](CCCC)C(=O)N[C@@H](CC(C)C)C(=O)N[C@H](C(=O)NCC(N)=O)CCNCC(=O)N[C@@H](Cc2ccc(O)cc2)C(=O)N(C)[C@@H](C)C(=O)N[C@@H](CC(N)=O)C(=O)N2CCC[C@H]2C(=O)N[C@@H](Cc2cnc[nH]2)C(=O)N[C@@H](CCC(N)=O)C(=O)N2C[C@H](O)C[C@H]2C(=O)N[C@@H](Cc2c[nH]c3ccccc23)C(=O)NCC(=O)N[C@@H](Cc2c[nH]c3ccccc23)C(=O)N1C [Example 10018] | 10 to 99 nM
CCCC[C@H]1C(=O)N(C)[C@@H](CCCC)C(=O)N[C@@H](CC(C)C)C(=O)N[C@H](C(N)=O)CCCC(=O)N[C@@H](Cc2ccc(O)cc2)C(=O)N2CCCC[C@H]2C(=O)N[C@@H](CC(N)=O)C(=O)N2CCC[C@H]2C(=O)N[C@@H](CN)C(=O)N[C@@H](CCC(=O)O)C(=O)N2C[C@H](O)C[C@H]2C(=O)N[C@@H](Cc2c[nH]c3ccccc23)C(=O)N[C@@H](CCN)C(=O)N[C@@H](Cc2cn(CC(=O)O)c3ccccc23)C(=O)N1C [Example 10520] (Y[Pip]NP[Dap]E[Hyp]W[Dab][Trp(1-CH2COOH)][NMeNle][NMeNle]L[Aad]-NH2; lactam N-14) | 10 to 99 nM
CCCC[C@H]1C(=O)N(C)[C@@H](CCCC)C(=O)N[C@@H](CC(C)C)C(=O)N[C@H](C(N)=O)COCC(=O)N[C@@H](Cc2ccc(F)cc2)C(=O)N2CCCC[C@H]2C(=O)N[C@@H](CC(N)=O)C(=O)N2CCC[C@H]2C(=O)N[C@@H](CN)C(=O)N[C@@H](CC(C)C)C(=O)N2C[C@H](O)C[C@H]2C(=O)N[C@@H](Cc2c[nH]c3ccccc23)C(=O)N[C@@H](CCN)C(=O)N[C@@H](Cc2cn(CC(=O)O)c3ccccc23)C(=O)N1C [Example 10529] | 10 to 99 nM
CCCC[C@H]1C(=O)N(C)[C@@H](CCCC)C(=O)N[C@@H](CC(C)C)C(=O)NCCC[C@H](N)C(=O)N[C@@H](Cc2ccc(C)cc2)C(=O)N2CCCC[C@H]2C(=O)N[C@@H](CC(N)=O)C(=O)N2CCC[C@H]2C(=O)N[C@@H](CN)C(=O)N[C@@H](CC(C)C)C(=O)N2C[C@H](O)C[C@H]2C(=O)N[C@@H](Cc2c[nH]c3ccccc23)C(=O)N[C@@H](CCN)C(=O)N[C@@H](Cc2cn(CC(=O)O)c3ccccc23)C(=O)N1C [Example 10519] (H-[Orn][Phe(4-Me)][Pip]NP[Dap]L[Hyp]W[Dab][Trp(1-CH2COOH)][NMeNle][NMeNle]L; lactam 1-C) | 10 to 99 nM
CCCC[C@H]1C(=O)N(C)[C@@H](CCCC)C(=O)N[C@@H](CO)C(=O)N[C@H](C(=O)NCC(N)=O)CNCC(=O)N[C@@H](Cc2ccc(O)cc2)C(=O)N(C)[C@@H](C)C(=O)N[C@@H](CC(N)=O)C(=O)N2CCC[C@H]2C(=O)N[C@@H](Cc2cnc[nH]2)C(=O)N[C@@H](CCC(N)=O)C(=O)N2C[C@H](O)C[C@H]2C(=O)N[C@@H](Cc2c[nH]c3ccccc23)C(=O)N[C@@H](CO)C(=O)N[C@@H](Cc2c[nH]c3ccccc23)C(=O)N1C [Example 10024] | 10 to 99 nM

Next, values leading:

IC50 | SMILES
1 to 9.9 nM | CCCC[C@H]1C(=O)N(C)[C@@H](CCCC)C(=O)N[C@@H](CC(C)C)C(=O)N[C@H](C(=O)NCC(N)=O)CNCC(=O)N[C@@H](Cc2ccc(OC)cc2)C(=O)N(C)[C@@H](C)C(=O)N[C@@H](CC(N)=O)C(=O)N2CCC[C@H]2C(=O)N[C@@H](CN)C(=O)N[C@@H](CCC(=O)O)C(=O)N2C[C@H](O)C[C@H]2C(=O)N[C@@H](Cc2c[nH]c3ccccc23)C(=O)N[C@@H](CCN)C(=O)N[C@@H](Cc2cn(CC(=O)O)c3ccccc23)C(=O)N1C [Example 1041]
10 to 99 nM | CCCC[C@H]1C(=O)N(C)[C@@H](CCCC)C(=O)N[C@@H](CC(C)C)C(=O)N[C@H](C(=O)NCC(N)=O)CNCC(=O)N[C@@H](Cc2ccc(O)cc2)C(=O)N(C)[C@@H](C)C(=O)N[C@@H](CC(N)=O)C(=O)N2CCC[C@H]2C(=O)N[C@@H](Cc2cnc[nH]2)C(=O)N[C@@H](CC(C)C)C(=O)N2C[C@H](O)C[C@H]2C(=O)N[C@@H](Cc2c[nH]c3ccccc23)C(=O)NCC(=O)N[C@@H](Cc2c[nH]c3ccccc23)C(=O)N1C [Example 10026]
1 to 9.9 nM | CCCC[C@H]1C(=O)N(C)[C@@H](CCCC)C(=O)N[C@@H](CC(C)C)C(=O)NCCCCC(=O)N[C@@H](Cc2ccc(Cl)cc2)C(=O)N2CCCC[C@H]2C(=O)N[C@@H](CC(N)=O)C(=O)N2CCC[C@H]2C(=O)N[C@@H](CN)C(=O)N[C@@H](CCC(=O)O)C(=O)N2C[C@H](O)C[C@H]2C(=O)N[C@@H](Cc2c[nH]c3ccccc23)C(=O)N[C@@H](CCN)C(=O)N[C@@H](Cc2cn(CC(=O)O)c3ccccc23)C(=O)N1C [Example 10544] (cyclo([Ava][Phe(4-Cl)][Pip]NP[Dap]E[Hyp]W[Dab][Trp(1-CH2COOH)][NMeNle][NMeNle]L))
1 to 9.9 nM | CCCC[C@H]1C(=O)N(C)[C@@H](CCCC)C(=O)N[C@@H](CCC(=O)O)C(=O)N[C@H](C(N)=O)CNCC(=O)N[C@@H](Cc2ccc(F)cc2)C(=O)N2CCCC[C@H]2C(=O)N[C@@H](CC(N)=O)C(=O)N2CCC[C@H]2C(=O)N[C@@H](CCC(N)=O)C(=O)N[C@@H](CCC(N)=O)C(=O)N2C[C@H](O)C[C@H]2C(=O)N[C@@H](Cc2c[nH]c3ccccc23)C(=O)N[C@@H](CC(N)=O)C(=O)N[C@@H](Cc2cn(CC(=O)O)c3ccccc23)C(=O)N1C [Example 9048]
